Experimental data: US9029559B2, “Substituted 3-heteroaroylamino-propionic acid derivatives and their use as pharmaceuticals” (SANOFI, priority 2011, dated 2015)
Like-named read-outs stand apart in the source and are kept apart here.

Molecular target: Recombinant human cathepsin A (Homo sapiens (Human), UniProt P10619)
Assay: Cathepsin A inhibitory activity (cleavage of Bodipy FL-labeled bradykinin, microfluidic capillary electrophoresis)
Format: biochemical
[1] = read-out: Activity (IC50, cathepsin A inhibitory activity)
[2] = read-out: Activity [μM] (IC50, cathepsin A inhibitory activity)
[3] = read-out: Activity (IC50, cathepsin A inhibition)
[4] = read-out: Activity (Cathepsin A inhibitory activity, IC50)

Chain of Recombinant human cathepsin A (P10619 29-326): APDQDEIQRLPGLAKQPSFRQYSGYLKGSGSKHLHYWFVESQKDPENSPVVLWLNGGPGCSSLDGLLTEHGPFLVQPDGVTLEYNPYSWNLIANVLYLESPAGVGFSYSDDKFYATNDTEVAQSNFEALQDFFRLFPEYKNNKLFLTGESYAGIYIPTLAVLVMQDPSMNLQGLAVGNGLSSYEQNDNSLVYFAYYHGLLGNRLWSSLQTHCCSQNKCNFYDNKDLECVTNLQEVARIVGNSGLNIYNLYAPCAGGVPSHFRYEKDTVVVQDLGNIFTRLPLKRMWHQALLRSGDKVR
Chain of Recombinant human cathepsin A (P10619 327-480): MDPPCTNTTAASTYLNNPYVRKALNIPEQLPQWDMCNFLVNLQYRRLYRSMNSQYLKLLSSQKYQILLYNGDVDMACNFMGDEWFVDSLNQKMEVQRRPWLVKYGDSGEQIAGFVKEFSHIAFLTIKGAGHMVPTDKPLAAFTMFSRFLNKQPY

| Structure (SMILES) | IC50 [1] | IC50 [2] | also measured |
| --- | --- | --- | --- |
| COc1ccc(F)c(-c2cncc(C(=O)N[C@@H](CC(=O)O)c3ccccc3C)c2)c1 [compound 88] | 8.51 µM | – | – |
| COc1ccc(-c2nc(C(=O)N[C@@H](CC(=O)O)c3ccccc3Cl)ccc2OC)cc1 [compound 335] | – | 2.25 µM | – |
| COc1ccc(C(=O)N[C@@H](CC(=O)O)c2ccccc2F)nc1-c1ccc(F)c(F)c1 [compound 280] | 3.12 µM | – | – |
| Cc1ccccc1[C@H](CC(=O)O)NC(=O)c1cncc(-c2ccccc2)c1 [compound 15] | 2.16 µM | – | – |
| COc1ccc(C(=O)N[C@@H](CC(=O)O)c2ccccc2Cl)nc1-c1cc(F)cc(F)c1 [compound 439] | 2.39 µM | – | – |
| COc1ccc(C(=O)N[C@@H](CC(=O)O)c2ccccc2C)nc1-c1ccnc(N2CCOCC2)c1 [compound 381] | – | > 10 µM | – |
| COc1ccc(C(C)(C)C)cc1-c1nc(C(=O)N[C@@H](CC(=O)O)c2ccc(C)cc2)ccc1OC [compound 240] | > 10 µM | – | – |
| COc1ccc(C(=O)N[C@@H](CC(=O)O)c2ccccc2Cl)nc1-c1ccc(Cl)cc1 [compound 334] | – | 1.81 µM | – |
| Cc1cccc([C@H](CC(=O)O)NC(=O)c2cccc(-c3ccccc3F)n2)c1 [compound 560] | – | – | IC50 [3]: 12.9 µM |
| Cc1ccnc(C(=O)NC(CC(=O)O)c2ccccc2Cl)c1 (stereo not shown) [compound 528] | – | – | IC50 [3]: 5.81 µM |
| Cc1ccccc1[C@H](CC(=O)O)NC(=O)c1cccc(-c2ccccc2C#N)n1 [compound 157] | – | 2.46 µM | – |
| COc1ccc(C(=O)N[C@@H](CC(=O)O)c2ccccc2C)nc1-c1ccc(C(C)=O)s1 [compound 364] | – | 9.25 µM | – |
| Cc1ccccc1[C@H](CC(=O)O)NC(=O)c1cccc(-n2ccnc2)n1 [compound 56] | 11.1 µM | – | – |
| COc1ccc(C(=O)N[C@@H](CC(=O)O)c2ccccc2Cl)nc1-c1ccc(F)c(C)c1 [compound 451] | 3.79 µM | – | – |
| COc1ccc(C(=O)N[C@@H](CC(=O)O)c2ccccc2Cl)nc1-c1cccc(C#N)c1 [compound 433] | 8.26 µM | – | – |
| COc1ccc(C(=O)N[C@@H](CC(=O)O)c2ccc(C)cc2)nc1-c1ccc(Cl)cc1Cl [compound 183] | – | 1.01 µM | – |
| Cc1ccccc1[C@H](CC(=O)O)NC(=O)c1cncc(-c2ccccc2C(F)(F)F)c1 [compound 66] | 4.29 µM | – | – |

| Structure (SMILES) | IC50 [1] | IC50 [2] | also measured |
| --- | --- | --- | --- |
| Cc1ccc([C@H](CC(=O)O)NC(=O)c2cccc(-c3ccccc3F)n2)cc1 [compound 559] | – | – | IC50 [3]: 4.38 µM |
| COc1ncc(C(=O)N[C@@H](CC(=O)O)c2ccccc2Cl)cc1-c1ccc(F)cc1C [compound 404] | 7.14 µM | – | – |
| COc1ccc(C(=O)N[C@@H](CC(=O)O)c2ccccc2Cl)nc1-c1cccc(C(C)(C)O)c1 [compound 496] | – | – | IC50 [3]: 2.86 µM |
| COc1ccc(C(=O)N[C@@H](CC(=O)O)c2ccccc2C)nc1-c1cccc(C(C)(C)O)c1 [compound 385] | – | 1.15 µM | – |
| O=C(O)CC(NC(=O)c1ccnc(N2CCCC2)c1)c1ccccc1Cl (stereo not shown) [compound 553] | – | – | IC50 [3]: 11.1 µM |
| Cc1ccc(-c2cccc(C(=O)N[C@@H](CC(=O)O)c3ccccc3C)n2)cc1 [compound 137] | – | 1.24 µM | – |
| COc1ccc(C(=O)N[C@@H](CC(=O)O)c2ccccc2C)nc1-c1cncnc1 [compound 372] | – | 8.88 µM | – |
| Cc1ccccc1[C@H](CC(=O)O)NC(=O)c1cncc(-c2ccc(Cl)cc2Cl)c1 [compound 61] | 5.14 µM | – | – |
| O=C(O)CC(NC(=O)c1cc(-c2ccccc2)nc(N2CCCCC2)n1)c1ccccc1Cl (stereo not shown) [compound 616, 3-(2-Chloro-phenyl)-3-[(6-phenyl-2-piperidin-1-yl-pyrimidine-4-carbonyl)-amino]-propionic acid] | – | – | IC50 [4]: 10.4 µM |
| COc1cc(C(=O)NC(CC(=O)O)c2ccccc2Cl)ccn1 (stereo not shown) [compound 536] | – | – | IC50 [3]: 5.08 µM |
| COc1ccc(C(=O)N[C@@H](CC(=O)O)c2ccc(C)cc2)nc1-c1ccc(C)cc1 [compound 188] | – | 4.45 µM | – |
| COc1cc(OC)nc(Oc2cccnc2C(=O)NC(CC(=O)O)c2ccccc2Cl)n1 (stereo not shown) [compound 615] | – | – | IC50 [4]: 3.58 µM |
| COc1ccc(-c2cc(C(=O)N[C@@H](CC(=O)O)c3ccccc3C)cnc2OC)cc1 [compound 409] | 9.04 µM | – | – |
| Cc1ccccc1[C@H](CC(=O)O)NC(=O)c1cccc(-c2ccccc2C(F)(F)F)n1 [compound 139] | – | 1.09 µM | – |
| Cc1ccccc1[C@H](CC(=O)O)NC(=O)c1cccc(N2CCCCC2)n1 [compound 54] | 8.93 µM | – | – |
| O=C(O)CC(NC(=O)c1cccc(-c2ccccc2F)n1)c1ccccc1Cl (stereo not shown) [compound 589] | – | – | IC50 [3]: 4.89 µM |
| Cc1cc(C(=O)N[C@@H](CC(=O)O)c2ccccc2C)nc(C)n1 [compound 55] | 5.26 µM | – | – |
